Earlier results in patent publication US10894006B2, “Nanoparticles for the encapsulation of compounds, preparation thereof and use of same” (CENTRO NACIONAL DE TECNOLOGÍA Y SEGURIDAD ALIMENTARIA, …, priority 2010, dated 2021).
Read-outs that look alike come from different tables or passages of the source.

SMILES: Nc1nc2ncc(CNc3ccc(C(=O)N[C@@H](CCC(=O)O)C(=O)O)cc3)nc2c(=O)[nH]1 [Non-encap FA, folic acid]
- solubility (in slightly alkaline aqueous solution): freely soluble
- solubility (in water): slightly soluble
